Several values for one entry are separate records, joined by “and”; a condition that tells them apart may be missing. Equal entries are not always repeated.
Assay: mn = molality of the nth substance listed, in mol/kg
Conditions: 100 kPa, Liquid; for viscosity: Capillary tube (Ostwald / Ubbelohde) method; for mass density: Vibrating tube method

CN1CC(=O)NC1=N [creatinine] + O
Conditions | mass density, 293.15 K [kg/m3] | mass density, 298.15 K [kg/m3] | mass density, 303.15 K [kg/m3] | mass density, 308.15 K [kg/m3] | mass density, 313.15 K [kg/m3] | viscosity, 293.15 K [mPa·s] | viscosity, 298.15 K [mPa·s] | viscosity, 303.15 K [mPa·s] | viscosity, 308.15 K [mPa·s] | viscosity, 313.15 K [mPa·s]
m1 = 0.1001 | 1001.16 | 999.95 | 998.49 | 996.82 | 994.94 | – | – | – | – | –
m1 = 0.147 | 1002.53 | 1001.29 | 999.82 | 998.13 | 996.21 | – | – | – | – | –
m1 = 0.2001 | – | – | – | – | – | 1.053 | 0.935 | 0.837 | 0.755 | 0.685
m1 = 0.202 | 1004.12 | 1002.86 | 1001.37 | 999.64 | 997.69 | – | – | – | – | –
m1 = 0.25 | 1005.5 | 1004.22 | 1002.71 | 1000.97 | 999 | – | – | – | – | –
m1 = 0.2999 | – | – | – | – | – | 1.077 | 0.956 | 0.856 | 0.772 | 0.7
m1 = 0.3023 | 1006.99 | 1005.69 | 1004.16 | 1002.4 | 1000.43 | – | – | – | – | –
m1 = 0.3496 | 1008.33 | 1007.01 | 1005.48 | 1003.7 | 1001.71 | – | – | – | – | –
m1 = 0.3996 | – | – | – | – | – | 1.102 | 0.978 | 0.875 | 0.789 | 0.715
m1 = 0.4028 | 1009.83 | 1008.48 | 1006.94 | 1005.13 | 1003.12 | – | – | – | – | –
m1 = 0.5002 | – | – | – | – | – | 1.126 | 0.999 | 0.894 | 0.806 | 0.73
m1 = 0.5014 | 1012.57 | 1011.2 | 1009.63 | 1007.79 | 1005.76 | – | – | – | – | –
m1 = 0.5514 | 1013.95 | 1012.56 | 1010.97 | 1009.12 | 1007.08 | – | – | – | – | –
m1 = 0.6 | – | – | – | – | – | 1.15 | 1.02 | 0.912 | 0.822 | 0.745
m1 = 0.6018 | 1015.33 | 1013.93 | 1012.34 | 1010.48 | 1008.4 | – | – | – | – | –
m1 = 0.6087 | 1015.52 | 1014.11 | 1012.53 | 1010.65 | 1008.61 | – | – | – | – | –
m1 = 0.6491 | 1016.62 | 1015.21 | 1013.61 | 1011.72 | 1009.65 | – | – | – | – | –
m1 = 0.7 | – | – | – | – | – | 1.173 | 1.04 | 0.93 | 0.838 | 0.759

CN(CC(=O)O)C(=N)N [N-amidinosarcasine] + O
Conditions | mass density, 293.15 K [kg/m3] | mass density, 298.15 K [kg/m3] | mass density, 303.15 K [kg/m3] | mass density, 308.15 K [kg/m3] | mass density, 313.15 K | viscosity, 293.15 K [mPa·s] | viscosity, 298.15 K [mPa·s] | viscosity, 303.15 K [mPa·s] | viscosity, 308.15 K [mPa·s] | viscosity, 313.15 K [mPa·s]
m1 = 0.02 | – | – | – | – | – | 1.008 | 0.895 | 0.804 | 0.723 | 0.658
m1 = 0.03 | – | – | – | – | – | 1.011 | 0.898 | 0.806 | 0.727 | 0.659
m1 = 0.0306 | 999.51 | 998.33 | 996.9 | 995.23 | 993.35 kg/m3 | – | – | – | – | –
m1 = 0.04 | 999.9 | 998.72 | 997.28 | 995.6 | 993.7 kg/m3 | 1.014 | 0.901 | 0.808 | 0.729 | 0.662
m1 = 0.0406 | 999.93 | 998.74 | 997.31 | 995.63 | 993.73 kg/m3 | – | – | – | – | –
m1 = 0.0477 | 1000.23 | 999.04 | 997.6 | 995.91 | 994 kg/m3 | – | – | – | – | –
m1 = 0.05 | 1000.33 | 999.13 | 997.69 | 996 | 994.09 kg/m3 | 1.017 | 0.904 | 0.81 | 0.731 | 0.664
m1 = 0.0548 | 1000.53 | 999.33 | 997.89 | 996.2 | 994.28 kg/m3 | – | – | – | – | –
m1 = 0.0564 | 1000.59 | 999.4 | 997.96 | 996.26 | 994.35 kg/m3 | – | – | – | – | –
m1 = 0.0597 | 1000.73 | 999.53 | 998.09 | 996.39 | 994.47 kg/m3 and 994.48 kg/m3 | 1.019 | 0.907 | 0.811 | 0.733 | 0.665
m1 = 0.0675 | 1001.06 | 999.86 | 998.41 | 996.71 | 994.79 kg/m3 | – | – | – | – | –
m1 = 0.0701 | 1001.17 | 999.96 | 998.52 | 996.82 | 994.89 kg/m3 | 1.024 | 0.91 | 0.817 | 0.737 | 0.669
m1 = 0.0727 | 1001.27 | 1000.07 | 998.63 | 996.92 | 995 kg/m3 | – | – | – | – | –
m1 = 0.0782 | 1001.5 | 1000.29 | 998.85 | 997.15 | 995.22 kg/m3 | – | – | – | – | –
m1 = 0.08 | 1001.58 | 1000.37 | 998.93 | 997.22 | 995.3 kg/m3 | 1.028 | 0.913 | 0.818 | 0.738 | 0.67
m1 = 0.0898 | 1001.98 | 1000.77 | 999.34 | 997.63 | 995.71 kg/m3 | – | – | – | – | –
m1 = 0.09 | 1001.99 | 1000.78 | 999.34 | 997.64 | 995.71 kg/m3 | 1.033 | 0.917 | 0.823 | 0.74 | 0.672
m1 = 0.0926 | 1002.1 | 1000.89 | 999.45 | 997.74 | 995.82 kg/m3 | – | – | – | – | –
m1 = 0.1038 | 1002.56 | 1001.35 | 999.92 | 998.21 | 996.3 kg/m3 | – | – | – | – | –
m1 = 0.1113 | 1002.87 | 1001.65 | 1000.23 | 998.53 | 996.62 kg/m3 | – | – | – | – | –
m1 = 0.1207 | 1003.25 | 1002.04 | 1000.62 | 998.93 | 997.03 kg/m3 | – | – | – | – | –
m1 = 0.1287 | 1003.58 | 1002.36 | 1000.96 | 999.26 | 997.39 kg/m3 | – | – | – | – | –
m1 = 0.1326 | 1003.74 | 1002.52 | 1001.12 | 999.43 | 997.56 kg/m3 | – | – | – | – | –
